For experiment [1], the system named is human colorectal cancer cell line SW837. Briefly: Antitumor effect on SW837 tumor subcutaneously implanted to SCID-Beige mouse. Format: in vivo. Particulars: Compound 1 alone, 25 mg/kg/day orally once a day for 28 days; day of assessment. The procedure: The day at which the grouping was carried out was defined as Day 0.
Experiment [2] concerns NCI-H358, MKN45, NCI-H23, RT 4, MV-4-11, RMG-I. Briefly: Anti-proliferation assay, summary over the cell lines of table 3. The format is cell-based. The protocol: Cell lines were obtained from ATCC or Health Science Research Resources Bank.
384 well culture plate (781086, Greiner Bio-One International) was used for cell survival rate measurement assay. Each cell lines were collected by ordinary method, then suspended in indicated medium containing 10% fetal bovine serum in table 3. The number of cells seeded per well was set to 500 cells/20 μL. After incubation at 37° C. for 24 hours under 5% CO2, Compound 1 and additional compound having an antitumor effect or a vehicle (DMSO) was added to each well by using D300e Digital Dispenser (Tecan). The concentration of Compound 1 was set to 10 concentrations. The concentration of each anti-cancer reagents set to 8 concentrations including 0 nM. After adding the medicine to the cells, the cells were further incubated at 37° C. for 3 days under 5% CO2. Cell survival rates were calculated by adding 20 μL of CellTiter-Glo(registered trademark) 2. 0 (Promega) solution to each well, incubating the cells at room temperature for 10 minutes, and then measuring the chemiluminescence intensity of each well using a plate reader (ARVO).
A combination index (CI) value at each combined concentration of the medicines was determined.

In experiment [3] the test system is human pancreatic cancer cell line MIA PaCa-2 (KRAS mutation). Briefly: Antitumor effect on MIA PaCa-2 tumor subcutaneously implanted to CB17 SCID mouse. Format: in vivo. Particulars: for T/C: once a day, Day 18. The procedure:
MIA PaCa-2 cell line carries KRAS mutation.
A human pancreatic cancer line, MIA PaCa-2 (available from American Type Culture Collection), suspended in a mixture of PBS and Matrigel was subcutaneously implanted to male CB17 SCID mice at 7-10 weeks of age (Charles River UK) at 5×10^6 cells/100 μl/mouse. Tumors were measured with a pair of digital calipers, and tumor volumes (TV) were calculated by applying the formula for ellipsoid. Mice with TV of 146 to 360 mm^3 were assigned to study groups such that average TV was equal among groups.
Oral administration of Compound 1 or its vehicle, and Compound 9 or its vehicle was started on Day 1. Compound 1 was dissolved in an acidified solution of 0.5% (w/v) hydroxypropyl methylcellulose (Sigma) and administered via oral gavage at 6 or 12 mg/kg/day. Compound 9 was suspended in 20% (v/v) PEG200 (Sigma) and 0.5% (w/v) methylcellulose (Sigma) and administered via oral gavage at 50 mg/kg/day. All treatments were given once a day for 21 consecutive days, except for the combination group receiving 12 mg/kg of Compound 1 and 50 mg/kg of Compound 9, in which the animals were treated for 5 days per week for 3 weeks.
Antitumor effects were evaluated by comparing the median relative tumor volumes (RTV) between control- and treated groups. RTV was calculated by dividing TV on any test day by TV on Day 1, expressed as a percentage. T/C (%), as a measure of anti-tumor activity, was calculated by dividing median RTV values of each compound-administered group by median RTV of the control group receiving both vehicles.

The next experiment concerns 491 cell lines. Briefly: In vitro cell line screening, both panels overall. The format is cell-based, human. The settings on record: Total panel, sensitive = maximum inhibition greater than 50% relative to DMSO, max 3 μM Compound 1, 1 μM Compound 9, 120-hour incubation. The procedure: (§1) Cells from human cancer cells lines (from commercial sources such as ATCC or ECCAC) were grown as 3D cultures by seeding cells into round-bottom ultra-low attachment 96-well tissue culture plates (Corning) followed by centrifugation. Cells were allowed to recover for 16-24 hours prior to compound treatment. Compounds or dimethyl sulfoxide (DMSO) were added at various combinations of compound concentrations in a final DMSO concentration of up to 0.5% (v/v). Following a total of 120-hour incubation, CellTiter-Glo 3D Reagent(registered trademark) (Promega) was added. Plates were incubated for 10 minutes with gentle shaking at room temperature to lyse the cells, then incubated for further 40 minutes at room temperature to stabilize luminescence signal. After mixing, the mixture was transferred to a fresh plate and luminescence was determined on EnVision plate reader (Perkin Elmer).
as §1, with “as 2D monolayers” for “as 3D cultures”, “seeding onto flat-bottom” for “seeding cells into round-bottom ultra-low attachment”, “plates (Corning).” for “plates (Corning) followed by centrifugation.”, “CellTiter-Glo reagent(registered” for “CellTiter-Glo 3D Reagent(registered”, “further 10” for “further 40”, “fresh plate,” for “fresh plate”
(§2) For both 3D and 2D assays, the combination was tested as matrix of various concentrations of Compound 1 and Compound 9. The maximum concentrations of Compound 1 and Compound 9 used were 3 μM and 1 μM, respectively. Signals were normalized to that of the average of the DMSO control wells. […] For each cell line, the maximum % inhibition values were obtained for Compound 1 alone, Compound 9 alone and the combination of both compounds. The degree of drug interaction (i.e. synergy, additivity or antagonism) was quantified for each cell line by the Bliss independence model using the Synergyfinder R package (Ref: He L. et al. (2018) Methods for High-throughput Drug Combination Screening and Synergy Scoring. In: von Stechow L. (eds) Cancer Systems Biology. Methods in Molecular Biology, vol 1711. Humana Press, New York, N.Y.). For each cell line, a single score metric, the sum of synergy and antagonism across screened drug concentrations (SUM_SYN_ANT) (Ref: Di Veroli G. Y. et al (2016) Bioinformatics 32(18):2866-2868), was calculated. Synergy was defined as a score of 21 or above.

The test system of experiment [4] is 394 cell lines that do not depend on KRAS. Briefly: In vitro cell line screening, 2D monolayers (CellTiter-Glo), KRAS-independent panel. Format: cell-based, human. The settings on record: Non-KRAS panel, sensitive = maximum inhibition greater than 50% relative to DMSO, max 3 μM Compound 1, 1 μM Compound 9, 120-hour incubation. The procedure:
as §1, with “as 2D monolayers” for “as 3D cultures”, “seeding onto flat-bottom” for “seeding cells into round-bottom ultra-low attachment”, “plates (Corning).” for “plates (Corning) followed by centrifugation.”, “CellTiter-Glo reagent(registered” for “CellTiter-Glo 3D Reagent(registered”, “further 10” for “further 40”, “fresh plate,” for “fresh plate”
as §2

`Cn1nc2ccc(-c3c[nH]c4nc(N5[C@H]6CC[C@@H]5[C@H](N)C6)n(C)c(=O)c34)c(Cl)c2c1Cl` [Compound 1, 2-((1R,2R,4S)-2-amino-7-azabicyclo[2.2.1]heptan-7-yl)-5-(3,4-dichloro-2-methyl-2H-indazol-5-yl)-3-methyl-3,7-dihydro-4H-pyrrolo[2,3-d]pyrimidin-4-one]: the “T/C (%)” value in experiment [1] is 65.0%. For the same compound, the “anti-proliferation activity in combination” value is reported as “synergistically enhanced” in experiment [2] (with ALK, Her family (EGFR and HER2), BCR-ABL, FLT3, multi-kinase (PDGFR and VEGFR), c-kit inhibitor); “synergistically enhanced” in experiment [2] (with BCL2 inhibitor); “synergistically enhanced” in experiment [2] (with CDK4/6 inhibitor); “synergistically enhanced” in experiment [2] (with HDAC inhibitor); “synergistically enhanced” in experiment [2] (with PI3K inhibitor or AKT inhibitor); “synergistically enhanced” in experiment [2] (with RAF inhibitor, MEK inhibitor or ERK inhibitor). Further, the “anti-proliferation activity in combination” value in experiment [2] (with anthracycline antibiotics), in experiment [2] (with anti-metabolite), in experiment [2] (with microtubule inhibitor), in experiment [2] (with platinum antitumor agent) and in experiment [2] (with topoisomerase inhibitor) was “synergistically enhanced” each time. Also, the tumor response entry in experiment [3] (Compound 1 alone 6 mg/kg/day) is recorded as “transient stasis”; in experiment [3] (Compound 1 alone 12 mg/kg/day), “tumor stasis”. The results for the T/C in experiment [3] (Compound 1 alone 6 mg/kg/day oral) and in experiment [3] (Compound 1 alone 12 mg/kg/day oral) were 58% and 33%, respectively. For the same compound, the “partial regression (tumor shrinkage of 50% or above), mice” value in experiment [3] (Compound 1 alone 12 mg/kg/day) was 2 out of 8. Also, the figures for the “Number of cell lines sensitive” value (in the experiment with 491 cell lines; in experiment [4]) were 175 and 137, respectively. In addition, the “Number of cell lines sensitive (% of total)” value in the experiment on 491 cell lines was “(35.6) %”; in experiment [4], “(34.8) %”.

What is called T/C is the result in the treated group divided by that in the control group, in per cent.

The values above are taken from patent US20230146795A1, “ENHANCEMENT OF ANTI-TUMOR ACTIVITY OF SHP2 INHIBITOR PYRIMIDINONE IN COMBINATION WITH NOVEL CANCER MEDICINES IN CANCERS” (TAIHO PHARMACEUTICAL CO., LTD., priority 2020, published 2023).
